Some test systems named below: DLD-1; DMS-114; HOP-18; LXFL 529; M19-MEL; RXF 631; SNB-78; XF498; DMS-273.
What all share (experiment): DTP human tumour cell line panel, 48 h

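All cell lines were grown in 96-well plates and treated with compound for 48 hours. GI50: concentration for 50% inhibition of growth.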 The source made the active and inactive calls. Cut-off read from the data, not from the text of the source: active = GI50 up to about 1.1 µM and inactive = higher. A value given as a limit tells only on which side of the number the result lay.

With `CCN(CC)C(=S)S` [DITIOCARB SODIUM], the GI50 in the experiment on DLD-1 is 88.5 µM (inactive); in the experiment on DMS-114, 0.0968 µM (active); in the experiment on HOP-18, > 100 µM (inactive); in the experiment on LXFL 529, > 100 µM (inactive); in the experiment on M19-MEL, 0.439 µM (active); in the experiment with RXF 631, 3.27 µM (inactive). Further, the GI50 was > 100 µM (inactive) in the experiment with SNB-78 and 0.221 µM (active) with XF498.
For the compound `O=C(c1ccc(Cl)cc1Cl)C1[C@H]2C(=O)N(c3ccc(Cc4ccc(N5C(=O)[C@@H]6ON(c7ccccc7)C(C(=O)c7ccc(Cl)cc7Cl)[C@@H]6C5=O)cc4)cc3)C(=O)[C@H]2ON1c1ccccc1` (stereo partly drawn), the GI50 in the experiment with DLD-1, with DMS-114, in the experiment on DMS-273, in the experiment with HOP-18, with LXFL 529 and in the experiment on M19-MEL was > 50 µM (inactive) in each case. In addition, the GI50 in the experiment on RXF 631 and with SNB-78 was > 50 µM (inactive) in each case.
As to `CC1CC[C@@]23CCC4(C)[C@@](C=CC5[C@@]6(C)CCC(=O)C(C)(C)C6CC[C@]54C)(OC2=O)[C@@H]3[C@H]1C` (stereo partly drawn), the GI50 was 19.3 µM (inactive) with DLD-1; 6.46 µM (inactive) in the experiment on DMS-114; 9.89 µM (inactive) in the experiment on LXFL 529; 17.9 µM (inactive) in the experiment with M19-MEL; 21.1 µM (inactive) in the experiment on RXF 631; 20 µM (inactive) in the experiment on SNB-78. Moreover, in the experiment with XF498, the GI50 is 15.3 µM (inactive).
For `CN(C)/C=N/c1nc2ncn(CCOC(=O)c3ccccc3)c2c(=O)[nH]1`, the GI50 in the experiment with DLD-1, in the experiment on DMS-114, in the experiment with DMS-273, with HOP-18, in the experiment on LXFL 529 and with M19-MEL was > 100 µM (inactive) throughout. The GI50 with RXF 631 and in the experiment on SNB-78 was > 100 µM (inactive) in each case.
In the case of `Brc1ccc(N2C[N+](c3ccc(Br)cc3)=NC(c3ccccc3)=N2)cc1`, the GI50 was 12.6 µM (inactive) in the experiment on DLD-1; 19.5 µM (inactive) in the experiment with DMS-114; 8.65 µM (inactive) in the experiment with DMS-273; 14.8 µM (inactive) with HOP-18; 11.1 µM (inactive) in the experiment on LXFL 529; 14.3 µM (inactive) in the experiment with M19-MEL. Besides, the GI50 was 31.2 µM (inactive) with SNB-78 and 20.6 µM (inactive) with XF498.
Regarding `N#CC(C#N)=c1[nH]c2cccc3c2-c2c(cccc2c3=C(C#N)C#N)[nH]1`, the GI50 in the experiment with DLD-1 was > 100 µM (inactive); in the experiment with DMS-114, > 100 µM (inactive); with DMS-273, > 100 µM (inactive); in the experiment on HOP-18 it was > 100 µM (inactive); in the experiment with LXFL 529, > 100 µM (inactive); in the experiment with SNB-78 it was 57.4 µM (inactive). In addition, the GI50 in the experiment with XF498 is > 100 µM (inactive).
`COc1cccc(/C=C/c2cc(OC)c(OC)c(OC)c2)c1`: the GI50 was 18.3 µM (inactive) with DLD-1; 24.9 µM (inactive) in the experiment with DMS-114; 27.8 µM (inactive) in the experiment on DMS-273; 61.7 µM (inactive) in the experiment with LXFL 529; 70.1 µM (inactive) with M19-MEL; 23.7 µM (inactive) in the experiment on RXF 631. Besides, the GI50 was 21.8 µM (inactive) in the experiment with SNB-78 and 33.7 µM (inactive) in the experiment with XF498.
As for `CC(=O)OCC1OC(N2C(=O)[C@@H](Oc3ccccc3)[C@H]2/C=C/c2ccccc2)C(OC(C)=O)C(OC(C)=O)C1OC(C)=O` (stereo partly drawn), the GI50 in the experiment with DLD-1, in the experiment on DMS-114, in the experiment with DMS-273, with LXFL 529, in the experiment with M19-MEL and in the experiment with SNB-78 was > 100 µM (inactive) each time. Further, the GI50 in the experiment with XF498 is > 100 µM (inactive).
As for `C[N+]1=C(c2cccnc2/C=N/O)OCC1(C)C`, the GI50 in the experiment with DLD-1, in the experiment with DMS-114, in the experiment with DMS-273, with HOP-18, in the experiment on LXFL 529 and with M19-MEL was > 100 µM (inactive) in each case. Further, the GI50 with SNB-78 and in the experiment on XF498 was > 100 µM (inactive) in each case.
On to `COc1ccc(CCC2c3cc(OC)c(OC)cc3CCN2C)cc1OC` (stereo not drawn), for which the GI50 in the experiment on DLD-1, in the experiment on DMS-114, with HOP-18, in the experiment on LXFL 529, in the experiment on M19-MEL and with SNB-78 was > 100 µM (inactive) each time.
With `COc1ccc(C2c3cc(OC)c(OC)cc3C(Cc3ccc([N+](=O)[O-])cc3)C2c2ccc([N+](=O)[O-])cc2)cc1OC` (stereo not drawn), the GI50 in the experiment on DLD-1, with DMS-114, in the experiment with DMS-273, with LXFL 529, in the experiment on M19-MEL and with RXF 631 was > 100 µM (inactive) throughout. The GI50 in the experiment on SNB-78 is > 100 µM (inactive); with XF498 it was 48.9 µM (inactive).
As to `COc1ccc2[nH]c3c(c2c1)[C@H](c1ccccc1)C[C@@H]1C(=O)N(c2ccccc2)C(=O)[C@H]31`, the GI50 in the experiment on DLD-1 is 59.7 µM (inactive); in the experiment on DMS-114, 29.1 µM (inactive); with DMS-273 it was 47.8 µM (inactive); in the experiment on HOP-18, 2.54 µM (inactive); with LXFL 529 it was 43.2 µM (inactive); in the experiment on M19-MEL it was > 100 µM (inactive). Moreover, the figures for the GI50 in the experiment with RXF 631, in the experiment on SNB-78 and in the experiment on XF498 were 45.1 µM (inactive), 44.5 µM (inactive) and 23 µM (inactive), respectively.
For `CC(/C(=N\Nc1ccccc1)c1ccc(O)cc1)C1C(=O)Oc2ccccc21` (stereo not drawn), the GI50 in the experiment on DLD-1, with DMS-114, in the experiment on DMS-273, in the experiment with LXFL 529 and with M19-MEL was > 100 µM (inactive) throughout.
`Cc1ccc(NC(=O)CC2SC(=N)NC2=O)cc1C` (stereo not drawn): the GI50 in the experiment on DLD-1, in the experiment with LXFL 529, in the experiment on RXF 631, in the experiment on SNB-78 and with XF498 was > 100 µM (inactive) throughout.
Take `CN1Cc2c(nc(-c3ccc(Br)cc3)c[n+]2[O-])N(C)C1`: the GI50 in the experiment on DLD-1, in the experiment with DMS-114, in the experiment with DMS-273, with HOP-18, in the experiment on LXFL 529 and with SNB-78 was > 100 µM (inactive) each time. In addition, in the experiment with XF498, the GI50 was > 100 µM (inactive).
With `COC(=O)CC1C[C@H](C#N)N(C(=O)c2ccccc2)C[C@@H]1CC[N+](=O)[O-]` (stereo partly drawn), the GI50 with DLD-1, in the experiment on DMS-273, in the experiment on HOP-18, in the experiment on LXFL 529, in the experiment on M19-MEL and with SNB-78 was > 100 µM (inactive) throughout. Besides, the GI50 with XF498 is > 100 µM (inactive).
As to `COC(CN1C(=O)c2cccc3cccc(c23)C1=O)OC`, the GI50 was > 100 µM (inactive) in the experiment on DLD-1; 78 µM (inactive) with DMS-114; 48.9 µM (inactive) in the experiment on DMS-273; > 100 µM (inactive) with HOP-18; 62.7 µM (inactive) with LXFL 529; > 100 µM (inactive) in the experiment on M19-MEL. Also, the results for the GI50 in the experiment on SNB-78 and with XF498 were > 100 µM (inactive) and 23.1 µM (inactive), respectively.
For the compound `COc1ccc2[nH]c3c(C)cc([N+](=O)[O-])c(C)c3c2c1`, the GI50 was 26.6 µM (inactive) with DLD-1; 23.3 µM (inactive) in the experiment on DMS-114; 13.6 µM (inactive) with DMS-273; 26.1 µM (inactive) in the experiment with HOP-18; 25.5 µM (inactive) in the experiment on LXFL 529; 21.9 µM (inactive) with M19-MEL. Further, in the experiment on XF498, the GI50 was 34.2 µM (inactive).
On to `CC(=O)NC(C=O)C(O[C@H](C)C(=O)NC(C)C(=O)NC(CCC(N)=O)C(=O)OCc1ccccc1)C(O)C(O)COC(=O)CCNc1c2ccccc2nc2cccc([N+](=O)[O-])c12` (stereo partly drawn), for which the GI50 is 3.41 µM (inactive) with DLD-1; 2.81 µM (inactive) with DMS-114; 2.69 µM (inactive) in the experiment on DMS-273; 4.3 µM (inactive) in the experiment on HOP-18; 1.79 µM (inactive) in the experiment with LXFL 529; 1.66 µM (inactive) in the experiment on M19-MEL. The GI50 in the experiment on SNB-78 is 2.58 µM (inactive); with XF498 it was 1.83 µM (inactive).
With `O=C(CO[N+](=O)[O-])OC/C=C/c1ccccc1`, the GI50 in the experiment on DLD-1, in the experiment on DMS-114, with DMS-273, in the experiment on LXFL 529 and in the experiment with M19-MEL was > 100 µM (inactive) throughout.
Regarding `CCOC(=O)c1oc2ccc([N+](=O)[O-])c3c2c1CCC3`, the GI50 in the experiment with DLD-1 was > 100 µM (inactive); in the experiment on DMS-114, 36.9 µM (inactive); with DMS-273, 58.3 µM (inactive); with HOP-18 it was 6.55 µM (inactive); in the experiment on LXFL 529, > 100 µM (inactive); in the experiment on M19-MEL, > 100 µM (inactive). The GI50 is 37.2 µM (inactive) in the experiment on RXF 631, 34.8 µM (inactive) with SNB-78 and 20.7 µM (inactive) in the experiment with XF498.
